A short description of data set [1]: Partition coefficient (logP). The data set is classed as physicochemical. The following applies: octanol/water.
Data set [2] is described as follows: (§1) The rate of hydrolysis as a function of time. It is filed as ADME.
Data set [3] is described as follows: Inhibition of mitochondrial Cytochrome c Oxidase. To be noted: concentration not given here.
Data set [4] in a line: as §1. It is filed as functional.
The next data set concerns R3230AC. The data set can be described thus: Cell viability was measured against R3230AC rat mammary adenocarcinoma cells at 10 uM concentration. The data set is classed as functional.

As usually defined, the logP is the decadic logarithm of the partition coefficient of the neutral form, usually between octanol and water. Lower therefore signals lower lipophilicity. What is called inhibition is the change of the read-out against control, counted positive when it falls. Read a low inhibition as little suppression.

Consider `CN(C)c1ccc(-c2cc(-c3ccc(N(C)C)cc3)[s+]c(-c3ccc(N(C)C)cc3)c2)cc1.[Cl-]`, for which, in data set [1], the logP came out at 2.2. In data set [2], this molecule came in with a k1 of 0.0001 s⁻¹ and a k2 of 0.000022 s⁻¹. For the same molecule, in data set [3], the inhibition worked out at 0.82%.
In turn, `CN(C)c1ccc(-c2cc(-c3ccc(N(C)C)cc3)[se+]c(-c3ccc(N(C)C)cc3)c2)cc1` had a logP in data set [1] of 1.7. In data set [4], this molecule returned a k1 of 0.00024 s⁻¹ and a k2 of 1.7e-05 s⁻¹. The inhibition in data set [3] was found to be 0.78%.
`CN(C)c1ccc(-c2cc(-c3ccc(N(C)C)cc3)[te+]c(-c3ccc(N(C)C)cc3)c2)cc1.[Cl-]` had a logP in data set [1] of 2.3. In data set [4], this molecule had a k1 of 0.00024 s⁻¹ and a k2 of 1.1e-05 s⁻¹. In data set [3], this molecule had an inhibition of 0.38%. The molecule also gave a Cell viability in the data set on R3230AC of roughly 75%.

These data come from ChEMBL document CHEMBL1132404, “2,4,6-triarylchalcogenopyrylium dyes related in structure to the antitumor agent AA1 as in vitro sensitizers for the photodynamic therapy of cancer” (J Med Chem, 1999).
